Columns and labels:
HMGB1 [1] = test: Extracellular release of HMGB1 by ELISA; assay type: cell-based
Excerpt: HMGB1 is, together with HSP60, known as an important mediator for the activation of TLRs and the resulting inflammation. Accordingly, the extracellular release of HMGB1 was identified by the ELISA method.

HSP60 [2] = test: Release amounts of HSP60 in HEI-OC1 cells by ELISA; assay type: cell-based
Method: (§1) It is generally known that HSP60 in mitochondria is released outside of the cells to bind to TLR2 or TLR4, thereby inducing strong inflammation. Accordingly, the release amounts of HSP60 in mice and HEI-OC1 cells were measured by the ELISA method.

[3] = test system: TNF-α, IL-6, HSP60, TLR2 and TLR4 expression in HEI-OC1 cells; test: Expression of inflammation mediators by the PCR method; assay type: cell-based
[4] = test system: outer and inner hair cells of Corti's organ explants; test: Explants of the Corti's organ, shape and arrangement of hair cells; assay type: cell-based
HSP60 [5] = test: Release amounts of HSP60 in mice by ELISA; assay type: in vivo
Method: as §1

HSP60 [6] = test: Location variation of HSP60 by cell staining; assay type: cell-based
Excerpt: Also, location variation of HSP60 was identified by cell staining.

[7] = test system: C57BL/6 mice (age-related hearing loss model); test: Auditory brainstem response (ABR) threshold in animal model with age-related presbycusis; assay type: in vivo; conditions: for ABR threshold: feed containing 0.06% β-lapachone; for recovery of ABR thresholds in comparison with the control group: p<0.05
Method: C57BL/6 mice which are well known as a age-related hearing loss model were used for this experiment. 12-month-old C57BL/6 mice were directly purchased from Central Lab. Animal Inc. (Seoul, Korea), and bred up to 24 months of age with measuring hearing loss every 3 months. All mice used in this experiment were bred in an axenic (germfree) animal facility maintaining constant temperature (22 to 26° C.) and humidity (55 to 60%).
All experiments were conducted for groups divided into a control group freely providing normal feed, caloric restriction (CR) group limiting dietary to 70%, and βL group providing feed containing 0.06% β-lapachone (compound 1).
In order to evaluate auditory brainstem response, all lab animals were intramuscularly injected with a mixture of xylazine (5 mg/kg) and ketamine for anesthesia and the variation of auditory brainstem response threshold was measured using a TDT system (Tucker-Davis Technologies, FL, USA) in a soundproof room.
An insertable ear tip (3.5 mm, Nicolet Biomedical, Inc.) was placed in the external auditory meatus, electrodes were placed at scalp vertex (active electrode), the mastoid region of the ear of interest (reference electrode) and the mastoid region of the opposite ear (ground electrode), and the threshold of ABS was measured by starting with 90 dB HL intensity and then sequentially decreasing the intensity by 10 dB at 4, 8, 16 and 32 kHz.
There was no arousal response and death due to respiratory depression during the ABR test. The comparison of the ABR thresholds between groups was conducted by one-way analysis of variance (ANOVA) and P value of 0.05 or less was regarded as being significant.

6-week-old C57BL/6 mice = assay type: in vivo; conditions: β-lapachone (10, 20 and 40 mg/kg/day) and cisplatin for 4 days, p<0.05
Method: 6-week-old C57BL/6 mice were bred in an axenic (germfree) animal facility maintaining constant temperature (22 to 26° C.) and humidity (55 to 60%).
The comparison of the ABR thresholds between groups was conducted by one-way analysis of variance (ANOVA) and P value of 0.05 or less was regarded as being significant.

[8] = test system: HEI-OC1 auditory hair cell line; assay type: cell-based; conditions: β-lapachone 30 minutes before treating with cisplatin, p<0.05
[9] = test system: outer and inner hair cells of the inner ear; test: TUNEL identification of hair cell damage in inner ear; assay type: in vivo; conditions: 24-month-old mice, βL group vs control group
Excerpt: In order to identify damage of hair cells, the inner ears of the lab animals were enucleated and subject to terminal deoxynucleotidyl transferase-mediated dUTP nick end-labeling (TUNEL) from the top of cochlea to middle circular part thereof, followed by analyzing TUNEL positive cells using a fluorescence microscope.

HMGB1 [10] = test: HMGB1 expression in inner ear by tissue staining; assay type: in vivo; conditions: 21-month-old mice, compared to control and CR groups
Method: In order to identify an effect of β-lapachone against the expression of HMGB1 which is known to be important for the damage and shape variation of mitochondria, a tissue staining was conducted.

mitochondria = test: Shape variations of mitochondria by transmission electron microscope (TEM); assay type: in vivo; conditions: 24-month-old mice, compared to 2-month-old lab animals
Excerpt: Also, in order to identify inhibition of age-related mitochondria damage by β-lapachone, the shape variations of mitochondria were detected for three groups of 24-month-old lab animals using a transmission electron microscope (TEM).

[11] = HEI-OC1 cells treated with cisplatin

## N.N.[Cl][Pt][Cl] [cisplatin, reference compound]
HMGB1 [1]; [11]
  extracellular release of HMGB1: extracellular release of excessive amounts of HMGB1
HSP60 [2]; HEI-OC1 cells treated with cisplatin, p<0.05
  release amounts of HSP60: significantly increased release amounts of HSP60
[3]; [11]
  expression of inflammation mediators (TNF-α, IL-6, HSP60, TLR2, TLR4): increased expression of inflammation-inducing cytokines such as TNF-α, IL-6 and HSP60 and inflammation mediators such as TLR2 and TLR4
[4]; treated with cisplatin
  shape and arrangement of the outer and inner hair cells: shape and arrangement of the outer and inner hair cells were changed
HSP60 [5]; mice treated with cisplatin, p<0.05
  release amounts of HSP60: significantly increased release amounts of HSP60
HSP60 [6]; cells treated with cisplatin
  location of HSP60: HSP60 was almost expressed in cytoplasm

## CC1(C)CCC2=C(O1)c1ccccc1C(=O)C2=O [β-lapachone]
HMGB1 [1]; HEI-OC1 cells treated with cisplatin and β-lapachone, p<0.05
  extracellular release amounts of HMGB1: the release amounts decreased in a β-lapachone concentration-dependent manner
HSP60 [2]; HEI-OC1 cells treated with both β-lapachone and cisplatin
  release amounts of HSP60: decreased release amounts of HSP60 in a β-lapachone concentration-dependent manner
[3]; HEI-OC1 cells, β-lapachone 30 minutes before cisplatin
  expression of inflammation mediators by cisplatin (TNF-α, IL-6, HSP60, TLR2, TLR4): inhibited by β-lapachone in a concentration-dependent manner
[7]; 15-month-old mice, 4 kHz
  ABR threshold: 63.33±11.55 dB SPL
[7]; 15-month-old mice, 8 kHz
  ABR threshold: 33.33±15.28 dB SPL
[7]; 15-month-old mice, 16 kHz
  ABR threshold: 46.67±5.77 dB SPL
[7]; 15-month-old mice, 32 kHz
  ABR threshold: 53.33±5.77 dB SPL
[7]; 18-month-old mice, 4 kHz
  ABR threshold: 80±0 dB SPL
[7]; 18-month-old mice, 8 kHz
  ABR threshold: 46.67±11.55 dB SPL
[7]; 18-month-old mice, 16 kHz
  ABR threshold: 56.67±11.55 dB SPL
[7]; 18-month-old mice, 32 kHz
  ABR threshold: 66.67±11.55 dB SPL
[7]; 21-month-old mice, 4, 8, 16 and 32 kHz
  recovery of ABR thresholds in comparison with the control group: statistically significant recovery at regions except for 16 kHz
[7]; 21-month-old mice, 4 kHz
  ABR threshold: 56.67±5.77 dB SPL
[7]; 21-month-old mice, 8 kHz
  ABR threshold: 46.67±5.77 dB SPL
[7]; 21-month-old mice, 16 kHz
  ABR threshold: 53.33±15.28 dB SPL
[7]; 21-month-old mice, 32 kHz
  ABR threshold: 46.67±5.77 dB SPL
[7]; 24-month-old mice, 4, 8, 16 and 32 kHz
  recovery of ABR thresholds in comparison with the control group: statistically significant recovery at all regions
[7]; 24-month-old mice, at 8 to 32 kHz except for 4 kHz
  recovery of ABR threshold in comparison with the control group: no less than 30 dB SPL
[7]; 24-month-old mice, 4 kHz
  ABR threshold: 73.33±5.77 dB SPL
[7]; 24-month-old mice, 8 kHz
  ABR threshold: 43.33±5.77 dB SPL
[7]; 24-month-old mice, 16 kHz
  ABR threshold: 53.33±5.77 dB SPL
[7]; 24-month-old mice, 32 kHz
  ABR threshold: 53.33±11.55 dB SPL
6-week-old C57BL/6 mice
  recovery of ABR thresholds as compared to the CDDP group: statistically significant recovery at all regions
[8]
  protection from apoptosis by cisplatin (cell viability, MTT): protected the apoptosis by cisplatin in a concentration-dependent manner
[9]
  age-related apoptosis (TUNEL positive cells) in inner ear: significantly inhibited the age-related apoptosis in the whole inner ear
HMGB1 [10]
  expression of HMGB1 in the inner ear: significantly decreased expression of HMGB1
[4]; treated with both β-lapachone and cisplatin
  shape and arrangement of the auditory hair cells: maintained the shape and arrangement of the auditory hair cells similar to the control group
mitochondria
  number and shape of mitochondria (TEM): number and shape of mitochondria similar to the 2-month-old lab animals
HSP60 [5]; mice treated with both β-lapachone and cisplatin
  release amounts of HSP60: decreased release amounts of HSP60 in a β-lapachone concentration-dependent manner
HSP60 [6]; cells treated with both β-lapachone and cisplatin
  location of HSP60: HSP60 was expressed in only mitochondria like the normal cells

Reference: patent US20120289577A1, “COMPOSITION FOR TREATING OR PREVENTING HEARING LOSS COMPRISING NAPHTHOQUINONE-BASED COMPOUNDS” (KT&G LIFE SCIENCES CORPORATION, priority 2009, published 2012)
